Assays:
total HDAC [1] = assay: In vitro total HDAC activity (Fluor-de-Lys, HeLa nuclear extract); assay type: biochemical, human; conditions: for %Inhibition at 100 µM: total HDAC activity, nuclear extract from HeLa cells, compound at 100 µM; for total HDAC inhibition capacity: screening at 100 µM, result in words
Method: In vitro total HDAC activity was measured according to manufacturer's instructions using a nuclear extract from HeLa cells (human cervical cancer cell line) as HDAC source incubated with the Fluor-de-Lys® substrate (50 µM) for 20 min at room temperature (Fluor-de-Lys®, Enzo® Life Sciences, Antwerpen, Belgium). Reaction was stopped by addition of a developing solution (Fluor-de-Lys® developer I concentrate, Enzo® Life Sciences) containing trichostatin A (TSA) (2 µM). After 15 min of incubation at room temperature, fluorescence signal was measured on a fluorescence microplate reader (SYNERGY HTX multi-mode reader) with an exciting wavelength of 360 nm and emission wavelength of 460 nm. All dilutions of tested compounds were prepared in dimethylsulfoxide (DMSO).
Representative examples of 3-aminopyridines and 3,5-disubstituted nitrobenzenes were screened for their total HDAC inhibition capacity at 100 µM (Table 2). It was observed that only nitro-containing examples were active in the total HDAC screening assay (compounds 1, 3, 9 and 5), which moved forward to the specific HDAC8 isoenzyme assay (Table 3).

[2] = target: T1, recombinant protein HDAC8 (Homo sapiens, UniProt Q9BY41); assay: In vitro HDAC8 isoenzyme activity (Fluor-de-Lys-HDAC8 substrate); assay type: biochemical; conditions: 1 U/well, substrate 50 µM
T1 construct: purchased Enzo Life Sciences
T1 sequence (Q9BY41 1-377): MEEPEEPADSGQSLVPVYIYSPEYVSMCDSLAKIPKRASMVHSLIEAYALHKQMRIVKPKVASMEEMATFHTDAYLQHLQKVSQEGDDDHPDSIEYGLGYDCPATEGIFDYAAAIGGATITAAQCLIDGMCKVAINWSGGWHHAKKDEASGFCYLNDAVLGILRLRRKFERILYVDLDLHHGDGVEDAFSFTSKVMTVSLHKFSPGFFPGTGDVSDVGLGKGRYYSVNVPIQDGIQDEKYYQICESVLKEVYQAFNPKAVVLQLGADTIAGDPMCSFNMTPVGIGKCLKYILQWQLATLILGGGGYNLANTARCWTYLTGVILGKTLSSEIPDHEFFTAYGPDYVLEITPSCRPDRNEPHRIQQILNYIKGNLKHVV
Method: In vitro HDAC8 isoenzyme activity was tested using 1 U/well of recombinant protein HDAC8 (Enzo® Life Sciences) incubated with the Fluor-de-Lys®-HDAC8 substrate (50 µM) for 20 min at room temperature. Reactions were stopped by adding a developer II solution (Fluor-de-Lys® developer II concentrate, Enzo® Life Sciences) containing 2 µM of TSA. After 45 min of incubation at room temperature, fluorescence is measured as for total HDAC activity.

total HDAC [3] = assay: In vitro total HDAC activity (Fluor-de-Lys, HeLa nuclear extract); assay type: biochemical, human; conditions: nuclear extract from HeLa cells, 1µM (footnote a)

Structure (SMILES) | %Inhibition at 100 µM (total HDAC [1]) | other results
Nc1cc(C(=O)c2ccccc2O)cnc1-c1ccccc1 | Inactive | –
Nc1cc(C(=O)c2ccccc2O)cnc1-c1ccc2ccccc2c1 | Inactive | –
Cc1cc(C(=O)c2cnc(-c3ccccc3)c(N)c2)c(O)c([N+](=O)[O-])c1 | 67% | –
O=C(c1cc(C(=O)c2ccccc2O)cc([N+](=O)[O-])c1)c1ccccc1O | Inactive | –
Cc1ccc(O)c(C(=O)c2cc(C(=O)c3cc(C)ccc3O)cc([N+](=O)[O-])c2)c1 | Inactive | –
O=C(c1cc(C(=O)c2cc(Cl)ccc2O)cc([N+](=O)[O-])c1)c1cc(Cl)ccc1O | Inactive | –
COc1cccc(O)c1C(=O)c1cc(C(=O)c2c(O)cccc2OC)cc([N+](=O)[O-])c1 | Inactive | –
Cc1cc(C(=O)c2cc(C(=O)c3cc(C)cc([N+](=O)[O-])c3O)cc([N+](=O)[O-])c2)c(O)c([N+](=O)[O-])c1 | 65% | –
Nc1cc(C(=O)c2cc([N+](=O)[O-])ccc2O)cnc1-c1ccccc1 [Compound 1, (5-Amino-6-phenylpyridin-3-yl)(2-hydroxy-5-nitrophenyl)methanone] | – | total HDAC inhibition capacity (total HDAC [1]): active
Nc1cc(C(=O)c2ccccc2O)cnc1-c1ccc([N+](=O)[O-])cc1 [Compound 3, [5-Amino-6-(4-nitrophenyl)pyridin-3-yl](2-hydroxyphenyl)methanone] | – | total HDAC inhibition capacity (total HDAC [1]): active
O=C(c1cc(C(=O)c2cc([N+](=O)[O-])ccc2O)cc([N+](=O)[O-])c1)c1cc([N+](=O)[O-])ccc1O [Compound 5, (5-Nitro-1,3-phenylene)bis[(2-hydroxy-5-nitrophenyl)methanone]] | – | total HDAC inhibition capacity (total HDAC [1]): active; IC50 [2]: 27 µM
N#Cc1ccc(-c2ncc(C(=O)c3cc([N+](=O)[O-])ccc3O)cc2N)cc1 [Compound 9, 4-[3-amino-5-(2-hydroxy-5-nitrobenzoyl)pyridin-2-yl]benzonitrile] | – | total HDAC inhibition capacity (total HDAC [1]): active
CC(/C=C/C(=O)NO)=C\[C@@H](C)C(=O)c1ccc(N(C)C)cc1 [Trichostatin A] | – | %Inhibition of 1µM (total HDAC [3]): 90^a %
Nc1cc(C(=O)c2cc([N+](=O)[O-])ccc2O)cnc1-c1ccccc1 [drawing 28] | 78% | –
N#Cc1ccc(-c2ncc(C(=O)c3cc([N+](=O)[O-])ccc3O)cc2N)cc1 [drawing 29] | 82% | –
Nc1cc(C(=O)c2ccccc2O)cnc1-c1ccc([N+](=O)[O-])cc1 [drawing 30] | 67% | –
O=C(c1cc(C(=O)c2cc([N+](=O)[O-])ccc2O)cc([N+](=O)[O-])c1)c1cc([N+](=O)[O-])ccc1O [drawing 37] | 73% | –
Nc1cc(C(=O)c2cc([N+](=O)[O-])ccc2O)cnc1-c1ccccc1 [drawing 39] | – | IC50 [2]: 74 µM
N#Cc1ccc(-c2ncc(C(=O)c3cc([N+](=O)[O-])ccc3O)cc2N)cc1 [drawing 40] | – | IC50 [2]: 58 µM

— patent publication EP4306106A1, “NITRO-CONTAINING COMPOUNDS, COMPOSITIONS AND USES THEREOF” (Universidade de Aveiro, priority 2022, dated 2024)
